Marks after values point to notes of the source that are not given here.
Legend:
Type in all cases: physicochemical
[1] = Metal complexation, Fe(III)/L system; conditions: for log β(FemHhLl): spectrophotometric, 15% w/w DMSO/water
Experimental: (§1) The chelating ability of compound 1 towards Fe(III), Cu(II) and Zn(II) was evaluated through the determination of the global formation constants of the complexes via pH-potentiometric and spectrophotometric titrations of the respective 1:1, 1:2 and 1:3 M/L systems in 15% w/w DMSO/water. The fitting analysis of the respective pH-potentiometric curves was done via Hyperquad 2008 [36] while that of the spectrophotometric absorption spectra was performed using Psequad, and the found equilibrium models are presented in Table 2. Compound 1 was chosen because of its better profile after preliminary assays (i.e., good AChE inhibition and antioxidant activity, as well as good ability to inhibit Cu^2+-induced Aβ aggregation).
(§2) To the best of our knowledge, the determination of stability formation constants of the complexes with TA has not yet been done and so the herein calculated values for compound 1 cannot be compared with those from the literature. The metal complexation equilibrium models of compound 1 were determined by the following process: for the Fe/L and Cu/L systems, only spectrophotometric data was used due to the better quality of the experimental results obtained [the 1:1 titration (e.g., Figure 7)] allowed the determination of the stability constant corresponding to the ML species and then this value, as well as the respective spectra, was introduced in the fitting of Fe/L 1:3 or Cu/L 1:2 data]; for the Zn/L system, potentiometric data was used. For the found metal complex models contained in Table 2, MH-2L, MH-1L2 and MH-2L2 correspond to mixed ligand-hydroxo metal complexes.
(§3) Titrations of the selected compound 1, alone or in the presence of the metal ions, were accomplished in a 15% w/w DMSO/H2O medium, at T = 25.0 ± 0.1 °C and ionic strength (I) 0.1 M KCl, by using 0.1 M KOH as titrant. Both glass and Ag/AgCl reference electrodes were previously conditioned in different DMSO/H2O mixtures of increasing DMSO % composition and the response of the glass electrode was evaluated by strong acid–strong base (HCl/KOH) calibrations with the determination of the Nernst parameters by Gran’s method. […] The spectrophotometric measurements were carried out in a 250–320 nm wavelength range at pH ca 2.5-8.0. Under the stated experimental conditions, the pKw value (13.6) was determined and subsequently used in the computations. The stepwise protonation constants of the ligands, Ki = [HiL]/[Hi-1L][H], and the overall metal–complex stability constants, β (MmHhL1) = [MmHhLl]/[M]^m[H]^h[L]^l, were calculated by fitting the pH-potentiometric and spectrophotometric data with, respectively, Hyperquad 2008 [36] and Psequad programs. The metal hydrolysis model was determined under the defined experimental conditions (I = 0.1 M KCl, 15% w/w DMSO/H2O, T = 25.0 ± 0.1 °C) and the following values of stability constants were included in the fitting of the experimental data towards the equilibrium models related to the Fe(III)/L, Cu(II)/L and Zn(II)/L systems: log β (FeH-1) = −1.79, log β (FeH-2) = −4.9, log β (FeH-4) = −20.0; log β (Cu2H-2) = −9.5; log β (ZnH-1) = −8.6, log β (ZnH-3) = −27.2, log β (Zn2H-1) = −8.6. The species distribution curves were obtained with the Hyss program.

[2] = Metal complexation, Cu(II)/L system; conditions: for log β(CumHhLl): spectrophotometric, 15% w/w DMSO/water
Experimental: as §1, §2, §3

[3] = Metal complexation, Zn(II)/L system; conditions: for log β(ZnmHhLl): potentiometric, 15% w/w DMSO/water
Experimental: as §1
as §2, with “For the found metal complex models contained in Table 2, MH-2L, MH-1L2 and MH-2L2 correspond to mixed ligand-hydroxo metal complexes.” left out
Titrations of the selected compound 1, alone or in the presence of the metal ions, were accomplished in a 15% w/w DMSO/H2O medium, at T = 25.0 ± 0.1 °C and ionic strength (I) 0.1 M KCl, by using 0.1 M KOH as titrant. Both glass and Ag/AgCl reference electrodes were previously conditioned in different DMSO/H2O mixtures of increasing DMSO % composition and the response of the glass electrode was evaluated by strong acid–strong base (HCl/KOH) calibrations with the determination of the Nernst parameters by Gran’s method. […]

Solubility in water = experiment: Solubility in water
[4] = pH 7.4, CL/CM = 10, CM = 10^−6 M

## CCOC(=O)C1=C(O)C(C(C)C)NC1=O (centres unmarked) [Compound 1, Ethyl 4-hydroxy-5-isopropyl-2-oxo-2,5-dihydro-1H-pyrrole-3-carboxylate]
[1]; [4]
  pFe (pM = −log[M]): 16.6
[1]; species (1-22)
  log β(FemHhLl): 5.83(8) ^d
[1]; species (101)
  log β(FemHhLl): 9.46(7) ^d
[1]; species (102)
  log β(FemHhLl): 14.30(7) ^d
[1]; species (103)
  log β(FemHhLl): 19.4(1) ^d
[2]; calculated at pH 7.4, read-out: conditional dissociation constant (K’d) for the copper complex
  Kd: 83 µM
[2]; [4]
  pCu (pM = −log[M]): 11.6
[2]; species (1-12)
  log β(CumHhLl): 6.56(6) ^d
[2]; species (1-21)
  log β(CumHhLl): −4.15(7) ^d
[2]; species (101)
  log β(CumHhLl): 4.08(8) ^d
[3]; [4]
  pZn (pM = −log[M]): 6.0
[3]; species (1-21)
  log β(ZnmHhLl): −11.75(5) ^c
[3]; species (101)
  log β(ZnmHhLl): 3.16(8) ^c
Solubility in water
  solubility in water: insoluble in water
